The text below walks through data of patent publication US10383925B2, “Cancer antigen EEF2” (International Institute of Cancer Immunology, Inc., priority 2009, dated 2019).

Ends that are not written are not given here.

For one data set, the system named is CD8-positive T cells. As to the kind of experiment: Interferon-γ activity, T cells with peptide-pulsed HLA-A*2402 molecule-expressing T2 cells. Type of data set: cell-based. The settings on record: HLA-A*2402 molecule-expressing T2 cells pulsed with peptide, 5 hours. The procedure:
T cells were incubated together with HLA-A*2402 molecule-expressing T2 cells pulsed with eEF2 peptides (eEF2409-417, eEF2412-420 and eEF2701-709 peptides) in the presence of brefeldin A (Sigma) at 37° C. for 5 hours. After washing with PBS, CD3 and CD8 molecules which are cell surface antigens were stained by PerCP-conjugated anti-CD3 (BD Biosciences) and PE-conjugated anti-CD8 (Caltag, Burlingame, Calif.) antibodies on ice for 15 minutes. Subsequently, cells were fixed using Cytofix (BD Biosciences) on ice for 20 minutes, and intracellular IFN-γ was reacted with an FITC-conjugated anti-IFN-γ antibody (BD Biosciences) on ice for 30 minutes. Frequency of IFN-γ-positive cells present in CD8-positive T cells was analyzed using a flow cytometer.
In the case of RFDVHDVTL [eEF2701-709], the “interferon-γ activity (frequency of IFN-γ-positive cells in CD8-positive T cells)” value (shortened to “interferon-γ activity”) is recorded as “increase the interferon-γ activity”.

Consider “RFYAFGRVF (listed as Homo sapiens) [eEF2409-417]”, for which the “interferon-γ activity” value is reported as “increase the interferon-γ activity”. In the case of AFGRVFSGL [eEF2412-420], the “interferon-γ activity” value is “increase the interferon-γ activity”.

The subject of another data set is colon cancer SW480 cells. As to the kind of experiment: Cytotoxic activity (51Cr release) of peptide-induced CTL against endogenous eEF2 gene-expressing cells. Type of data set: cell-based. As to conditions: SW480 (HLA-A*2402 on surface) vs AZ-521 and MiaPaCa2 (no HLA-A*2402) as negative control.
Consider AYLPVNESF [eEF2786-794], for which the “cytotoxic activity against endogenous eEF2 gene-expressing cells” value is “specifically impair the cells which express the eEF2 and have the HLA-A*2402 molecule”.

For the next data set, the system named is CTL from healthy donors having an HLA-A*0201 molecule. As to the kind of experiment: Cytotoxic activity of CTL induced by HLA-A*0201-restricted eEF2 peptides. Type of data set: cell-based, human. As to conditions: PBMC of HLA-A*0201 donors stimulated with peptide; 6th day after the final peptide stimulation. On the procedure: From T cell clones established as described above, CD8-positive T cells were purified using CD8 Microbeads to prepare effector cells. Subsequently, target cells were incubated with ^51Cr-labeled sodium chromate (Amersham Biosciences Corp., NJ) for 1 hour to label the cells. They were then mixed with the effector cells so that the ratio of cell count was 1:1, 3:1 and 9:1 of CTL/target cell (E/T) ratio, and the mixture was allowed to stand for 4 hours. The percentage of cells lysed was calculated according to the following equation: Specific lysis %=[(cpm experimental release−cpm spontaneous release)/(cpm maximal release−cpm spontaneous release)]×100. T2-2402 cells pulsed with an eEF2786-794 pep tide were used as the target cells, and T2-2402 cells not pulsed with the eEF2786-794 peptide (SEQ ID NO:7) as a negative control.
The experiments were carried out in much the same way as in the above Example 3. Thus, blood was taken from healthy donors having an HLA-A*0201 molecule, peripheral blood mononuclear cells were separated, and the first stimulation was carried out using the six candidate peptides (stimulator: self-PBMC). Subsequently, the peptide stimulation on the second day and later was carried out at intervals of 8 to 13 days (stimulator: allo B-LCL 3 mg/ml). Furthermore, IL-2 was added every 2 days after the second stimulation at a final concentration of 20 IU/ml. Cytotoxicity was measured on the 6th day after the final peptide stimulation.
For the molecule `CC[C@H](C)[C@H](NC(=O)[C@H](CCC(=O)O)NC(=O)[C@H](CC(N)=O)NC(=O)[C@H](CC(C)C)NC(=O)[C@@H](N)Cc1ccc(O)cc1)C(=O)N[C@@H](CCCCN)C(=O)N[C@@H](CC(=O)O)C(=O)N[C@@H](CO)C(=O)N[C@H](C(=O)O)C(C)C` [eEF2671-679], the cytotoxic activity entry is given as “increase of cytotoxic activity was observed”. The same measure, in the same setting: then `CC(C)C[C@H](NC(=O)[C@H](CCC(N)=O)NC(=O)[C@H](CS)NC(=O)[C@H](Cc1ccccc1)NC(=O)[C@@H](NC(=O)[C@H](CCCNC(=N)N)NC(=O)[C@@H]1CCCN1C(=O)[C@H](CC(C)C)NC(=O)[C@@H](N)CCCCN)[C@@H](C)O)C(=O)O` [eEF2284-292], with “increase of cytotoxic activity was observed”; and `CC[C@H](C)[C@H](N)C(=O)N[C@@H](CC(C)C)C(=O)N[C@H](C(=O)N[C@@H](CC(=O)O)C(=O)N[C@H](C(=O)N[C@H](C(=O)N[C@@H](CCCCN)C(=O)NCC(=O)N[C@H](C(=O)O)C(C)C)[C@@H](C)O)[C@@H](C)CC)[C@@H](C)O` [eEF2661-669], with “increase of cytotoxic activity was observed”.

As to `CC[C@H](C)[C@H](NC(=O)[C@H](Cc1ccc(O)cc1)NC(=O)[C@H](CCSC)NC(=O)[C@H](CCSC)NC(=O)[C@@H](N)CC(C)C)C(=O)N[C@@H](CO)C(=O)N[C@@H](CCCCN)C(=O)N[C@@H](CCSC)C(=O)N[C@H](C(=O)O)C(C)C` [eEF2394-402], the cytotoxic activity entry is “increase of cytotoxic activity was observed”. For the molecule `CC(C)C[C@H](NC(=O)[C@H](CCCNC(=N)N)NC(=O)[C@H](CCCCN)NC(=O)[C@H](CC(C)C)NC(=O)CNC(=O)[C@H](CCC(=O)O)NC(=O)[C@@H](NC(=O)[C@H](CC(C)C)NC(=O)[C@@H](N)CCCCN)C(C)C)C(=O)O` [eEF2519-527], the cytotoxic activity result was “increase of cytotoxic activity was observed”. Turning to `CC[C@H](C)[C@H](NC(=O)[C@@H]1CCCN1C(=O)[C@H](CC(=O)O)NC(=O)[C@H](CC(C)C)NC(=O)[C@H](CCSC)NC(=O)[C@@H](N)CC(C)C)C(=O)N[C@@H](Cc1ccccc1)C(=O)N[C@@H](CCCCN)C(=O)N[C@H](C(=O)O)C(C)C` [eEF2292-300 2M], the cytotoxic activity result was “increase cytotoxicity”. With `CC[C@H](C)[C@H](NC(=O)[C@@H]1CCCN1C(=O)[C@H](CC(=O)O)NC(=O)[C@H](CC(C)C)NC(=O)[C@H](CC(C)C)NC(=O)[C@@H](N)CC(C)C)C(=O)N[C@@H](Cc1ccccc1)C(=O)N[C@@H](CCCCN)C(=O)N[C@H](C(=O)O)C(C)C` [eEF2292-300 2L], the cytotoxic activity entry was “increase cytotoxicity”.

On to `CC[C@H](C)[C@H](NC(=O)[C@@H]1CCCN1C(=O)[C@H](CCC(=O)O)NC(=O)[C@H](CCSC)NC(=O)[C@H](CC(C)C)NC(=O)[C@@H](N)CCCNC(=N)N)C(=O)N[C@@H](Cc1ccc(O)cc1)C(=O)N[C@@H](CC(C)C)C(=O)N[C@H](C(=O)O)C(C)C` [eEF2739-747], for which the cytotoxic activity entry is “increase of cytotoxic activity was observed”.

`CC[C@H](C)[C@H](NC(=O)[C@@H]1CCCN1C(=O)[C@H](CC(=O)O)NC(=O)[C@H](CC(C)C)NC(=O)[C@H](CC(C)C)NC(=O)[C@@H](N)CC(C)C)C(=O)N[C@@H](Cc1ccccc1)C(=O)N[C@@H](CCCCN)C(=O)N[C@@H](CC(C)C)C(=O)O` [eEF2292-300 2L9L]: the cytotoxic activity result is “increase cytotoxicity”.

Turning to `CC[C@H](C)[C@H](NC(=O)[C@@H]1CCCN1C(=O)[C@H](CC(=O)O)NC(=O)[C@H](CC(C)C)NC(=O)[C@H](CCSC)NC(=O)[C@@H](N)CC(C)C)C(=O)N[C@@H](Cc1ccccc1)C(=O)N[C@@H](CCCCN)C(=O)N[C@@H](CC(C)C)C(=O)O` [eEF2292-300 2M9L], the cytotoxic activity result is on record as “increase cytotoxicity”.

For another data set, the system named is CD8-positive T cells of donors having the HLA-A*0206 molecule. As to the kind of experiment: Interferon-γ production, donors having the HLA-A*0206 molecule.
Settings: not given
Type of data set: cell-based. The procedure:
T cells were incubated together with HLA-A*0201 molecule-expressing T2 cells pulsed with HLA-A*0201-restricted eEF2 peptides in the presence of brefeldin A (Sigma) at 37° C. for 5 hours. After washing with PBS, CD3 and CD8 molecules which are cell surface antigens were stained by PerCP-conjugated anti-CD3 (BD Biosciences) and PE-conjugated anti-CD8 (Caltag, Burlingame, Calif.) antibodies on ice for 15 minutes. Subsequently, cells were fixed using Cytofix (BD Biosciences) on ice for 20 minutes, and intracellular IFN-γ was reacted with an FITC-conjugated anti-IFN-γ antibody (BD Biosciences) on ice for 30 minutes. Frequency of IFN-γ-positive cells present in CD8-positive T cells was analyzed using a flow cytometer.
Next, evaluation was carried out as to whether the above 6 peptides and the eEF2292-300 peptide (SEQ ID NO:14) can bind to an HLA-A*0206 molecule and produce interferon-γ. The experiments were carried out in the same way as in the above method, except that donors having the HLA-A*0206 molecule were used.
Take “LILDPIFKV (listed as Homo sapiens) [eEF2292-300]”: the “production of interferon-γ” value is listed as “also serve as an HLA-A*0206-restricted peptide”.
